Results taken from ChEMBL document CHEMBL1811816, “Asperaculin A, a sesquiterpenoid from a marine-derived fungus, Aspergillus aculeatus” (J Nat Prod, 2011).
Active and inactive are the calls of the source.

What was measured:
Type in all cases: functional, cell-based
MOLT-3 = test: Cytotoxicity against human MOLT3 cells at 50 ug/mL after 72 hrs by XTT assay
HepG2 = test: Cytotoxicity against human HepG2 cells at 50 ug/mL after 72 hrs by MTT assay
A549 = test: Cytotoxicity against human A549 cells at 50 ug/mL after 72 hrs by MTT assay
HuCC-A1 = test: Cytotoxicity against human HuCCa1 cells at 50 ug/mL after 72 hrs by MTT assay

Measured: Activity

CC1(C)C[C@]2(C)COC(=O)[C@H]3OC(=O)[C@]4(O)CC[C@@H]1C324 (some centres undefined)
inactive: MOLT-3 | HepG2 | A549 | HuCC-A1
